In assay [1] the test system is corneal angiogenesis induced by vascular endothelial growth factor (VEGF). The conditions noted are these: cited from earlier work.
The subject of assay [2] is angiogenesis induced by basic fibroblast growth factor (bFGF). The following applies: cited from earlier work.
Assay [3] deals with human vascular endothelial cells (HUVECS). Briefly: Endothelial cell proliferation assay ([3H]-thymidine incorporation). The assay is classed as cell-based. The conditions noted are these: HUVEC, 20% serum, preliminary IC50 data, read-out: Inhibition of Endothelial Cell Proliferation (IC50 μM).
Description: Endothelial Cell Proliferation Assay.
The human vascular endothelial cells (HUVECS) were cultured to peri-confluence (80%) in 20% serum and treated with thalidomide (standard) or its analog (40-400 μM). After 20 h, [^3H]-thymidine (2 μCi/ml) was added to the culture medium for 2-4 h. The [^3H]-thymidine incorporation was stopped with ice-cold PBS (3 washes) and the cells were incubated with cold 10% trichloroacetic acid (TCA) for 10 min at 4° C. The cells were further incubated with TCA at room temperature for 10 min and washed three times with PBS. The cells were solubilized overnight with 1N NaOH and neutralized with an equivalent amount of 1N HCl before radioactivity was determined. The anti-proliferative activity of thalidomide or its analog was computed as a percent inhibition of HUVECS mitogenic response to 20% serum (fetal calf serum).
The next assay relates to angiogenesis. The following applies: oral; cited from earlier work.
The next assay has as its system endothelial cells. The conditions noted are these: in vitro; cited from earlier work.

Some results are limits rather than exact numbers.

Consider ten compounds from patent publication US7893071B2, “Synthesis and evaluation of novel phthalimide mimics as anti-angiogenic” (University of Virginia Patent Foundation, priority 2001, dated 2011).

Consider `O=C1CC[C@H](N2C(=O)c3ccccc3C2=O)C(=O)N1` (single isomer, unassigned) [S(−)-enantiomer of thalidomide], for which the “anti-angiogenic activity of enantiomers, VEGF-induced corneal neovascularization” value in assay [1] (comparison of enantiomers) was “strongest anti-angiogenic activity”. In addition, the “anti-angiogenic activity of enantiomers, bFGF-induced corneal neovascularization” value in assay [2] (comparison of enantiomers) is listed as “strongest anti-angiogenic activity”.
Take `O=C1CCC(N2C(=O)c3ccccc3C2=O)C(=O)N1` (stereo not drawn) [Compound 1, thalidomide]: the IC50 in assay [3] turned out to be 200 µM. For the same compound, in assay [1] (rabbits, pellet with 500 or 750 ng VEGF, two daily feedings of 200 mg/kg, after the 5th day of treatment, P<0.0001), the “inhibition of corneal angiogenesis” value is “statistically significant inhibition”. In assay [2] (rabbit), the “effect on angiogenesis, bFGF induced corneal micropocket” value was “inhibitory effects”. Also, in the assay on angiogenesis, the “effect on angiogenesis, orally in mice models” value is given as “inhibitory effects”. Also, the “endothelial cell proliferation in treated cultures” value in the assay with endothelial cells is recorded as “significant decrease”.
As to `O=C1c2ccccc2C(=O)N1c1ccc2c(c1)CCC2` [Compound 5], the IC50 in assay [3] is 85 µM.
For the compound `O=C1c2ccccc2C(=O)N1C1CCCc2ccccc21` (stereo not drawn) [Compound 7], in assay [3], the IC50 was greater than 400 µM.
On the same count and under the same terms, as for `CCC(c1cccc2ccccc12)N1C(=O)c2ccccc2C1=O` (stereo not drawn) [Compound 29], the figure is 45 µM.
Consider `CCCCCCC(c1ccc(OC)c(OC)c1)N1C(=O)c2ccccc2C1=O` (stereo not drawn) [Compound 32], for which the IC50 in assay [3] was less than 38.5 µM.
On the same count and under the same terms, under `CCOc1ccccc1N1C(=O)c2ccccc2C1=O` [Compound 50] stands 110 µM; under `Cc1cc(N)ccc1N1C(=O)c2ccc(Cl)cc2C1=O` [Compound 51], 350 µM; under `O=C1CC(N2C(=O)c3ccccc3C2=O)CC(=O)O1` [Compound 52], greater than 400 µM.
For `O=C1NC(=O)c2c1cccc2[N+](=O)[O-]` [Compound 53], in assay [3], the IC50 was greater than 400 µM.
